Experimental findings from ChEMBL document CHEMBL5537180, “Discovery of Novel Aminobutanoic Acid-Based ASCT2 Inhibitors for the Treatment of Non-Small-Cell Lung Cancer” (J Med Chem, 2024) are described below.

SMILES strings stand for the structures. Active and inactive are the calls of the source. No cut-off for these calls is given here.

For data set [1], the target named is T1, Sodium-coupled neutral amino acid symporter 1 (Homo sapiens) (UniProt Q9H2H9).
T1 sequence (whole entry): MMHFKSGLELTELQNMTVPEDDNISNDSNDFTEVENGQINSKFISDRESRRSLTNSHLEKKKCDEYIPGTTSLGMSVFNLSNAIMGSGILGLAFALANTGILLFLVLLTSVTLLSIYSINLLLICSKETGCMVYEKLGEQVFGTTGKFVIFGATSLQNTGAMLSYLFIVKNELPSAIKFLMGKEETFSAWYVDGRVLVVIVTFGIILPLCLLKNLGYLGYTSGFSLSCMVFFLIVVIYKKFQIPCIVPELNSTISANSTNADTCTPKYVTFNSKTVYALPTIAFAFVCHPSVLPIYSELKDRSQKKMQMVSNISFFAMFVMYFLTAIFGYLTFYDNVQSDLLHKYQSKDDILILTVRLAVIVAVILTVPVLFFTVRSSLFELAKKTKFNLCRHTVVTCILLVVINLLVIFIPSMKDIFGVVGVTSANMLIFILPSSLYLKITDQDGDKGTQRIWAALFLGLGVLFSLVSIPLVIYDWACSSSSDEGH
The data set can be described thus: Inhibition of SNAT1 (unknown origin) overexpressed in HEK293 cells assessed as reduction in [13C]-Gln uptake preincubated for 5 mins followed by substrate addition and measured after 15 mins. Format: cell-based. Particulars: time 20.0 min.

A short description of data set [2]: Bioavailability in Sprague-Dawley rat at 10 mg/kg, ip incubated for 24 hrs by LC-MS/MS analysis. The format is ADME, organism-based. Particulars: in vivo.
In data set [3] the test system is A549. The data set can be described thus: Induction of apoptosis in human A549 cells assessed as viable cells at 5 uM measured after 24 hrs by annexin-V/PI staining based flow cytometry analysis (reference value: 97.0%). The format is functional. Particulars: read-out: Activity. In general terms: A flow cytometer gives signals particle by particle.
Data set [4] addresses T1, Sodium-coupled neutral amino acid symporter 1 (Homo sapiens). Put plainly: Inhibition of SNAT1 (unknown origin) overexpressed in human A549 cells assessed as reduction in [13C]-Gln uptake preincubated for 5 mins followed by substrate addition and measured after 15 mins. The format is cell-based. The note with it: time 20.0 min.
Data set [5] relates to A549. Put plainly: Induction of apoptosis in human A549 cells assessed as necrotic cells at 10 uM measured after 24 hrs by annexin-V/PI staining based flow cytometry analysis (reference value: 0.13%). Format: functional.
For data set [6], the system named is A549. The data set can be described thus: Induction of apoptosis in human A549 cells assessed as early apoptotic cells at 10 uM measured after 24 hrs by annexin-V/PI staining based flow cytometry analysis (reference value: 1.56%). Format: functional.
Data set [7] concerns A549. The data set can be described thus: Induction of apoptosis in human A549 cells assessed as late apoptotic cells at 10 uM measured after 24 hrs by annexin-V/PI staining based flow cytometry analysis (reference value: 1.34%). The format is functional.
Data set [8] relates to A549. The data set can be described thus: Induction of apoptosis in human A549 cells assessed as necrotic cells at 5 uM measured after 24 hrs by annexin-V/PI staining based flow cytometry analysis (reference value: 0.13%). The format is functional.
In data set [9] the test system is A549. The data set can be described thus: Induction of apoptosis in human A549 cells assessed as viable cells at 10 uM measured after 24 hrs by annexin-V/PI staining based flow cytometry analysis (reference value: 97.0%). The format is functional. Particulars: read-out: Activity.
Data set [10] relates to A549. Put plainly: Induction of apoptosis in human A549 cells assessed as early apoptotic cells at 5 uM measured after 24 hrs by annexin-V/PI staining based flow cytometry analysis (reference value: 1.56%). The format is functional.
Data set [11] concerns A549. Put plainly: Induction of apoptosis in human A549 cells assessed as late apoptotic cells at 5 uM measured after 24 hrs by annexin-V/PI staining based flow cytometry analysis (reference value: 1.34%). Format: functional.

With `CC(C)(C)c1ccc(OCC#Cc2ccccc2)c(CN(CC[C@H](N)C(=O)O)Cc2cc(C(C)(C)C)ccc2OCC#Cc2ccccc2)c1`, the inhibition entry in data set [1] is “inactive”.

As a reminder, the bioavailability is the share of a dose that reaches the circulation, judged against a reference dose that is usually intravenous. With `N[C@@H](CCN(Cc1ccccc1OCC#Cc1ccc(Cl)cc1)Cc1ccccc1OCC#Cc1ccc(Cl)cc1)C(=O)O`, the bioavailability in [2] was found to be 77%. In addition, in the data set with A549 [3], the viability at 5 µM was 90.3%. The inhibition result in [4] is “Active”. Besides, the Activity with A549 [5] stood at 1.4%; with A549 [6], 6.93%; with A549 [7], 7.29%; in the data set with A549 [8] it was 0.79%; in the data set on A549 [10] it was 2.47%; in the data set on A549 [11] it was 6.44%. Further, the inhibition entry in [1] is “inactive”. Also, in the data set with A549 [9], the viability at 10 µM turned out to be 84.4%.
